Read-outs that look alike come from different tables or passages of the source.
What was measured:
[1] = tested on: PGE2 production in IL-1β-stimulated A549 cells; test: Inhibition of PGE2 production in IL-1β-stimulated A549 cells; type: cell-based, human; conditions: A549, IL-1β 10 ng/mL, 5 and 10 μM, 24 h, ELISA
Description: Figure 3 (A) A549 cells in conditioned medium (1% FBS and 10 ng/mL IL-1β) were incubated for 24 h with 5 and 10 μM of compound 3, 6, 7, and 9. PGE2 released into the medium was quantified using a specific ELISA. Control cells were stimulated with IL-1β, treated with vehicle (DMSO), and expressed as mean ± SEM (pg/mL), n = 2. (B) A549 cell line was used to perform a MTT assay. A549 were treated with 3, 6, 7, and 9 (test compounds, 10 μM), staurosporine (1 μM, positive control), or vehicle (0.1% DMSO) for 48 h. (C) Human monocytes were used to perform a MTT assay. Cells were treated with 3, 6, 7, and 9 (test compounds, 10 μM), Triton X-100 (1%, positive control), or vehicle (0.5% DMSO) for 24 h. Data are expressed as a percentage of control (100%), means, SEM, n = 3.
Carslbad, CA, USA), in 5% CO2 humid atmosphere. The cells were subcultured every 2 days and were tested for Mycoplasma using PCR analysis.Inhibition of PGE2 production in cells A549 cells were plated at 10.000 cells/well in DMEM with 10% FBS-medium in a 96-well plate; after overnight incubation, the cells were treated with 5 and 10 µM of 3, 6, 7, 9 compounds in DMEM 1%FBS and IL-1β (10 ng/ml) to upregulate PG synthase expression.
After 24 h, the amount of PGE2 released in the supernatant was evaluated by a commercially available enzyme immunoassay kit (Prostaglandin E2 EIA kit Monoclonal, Cayman Chemical), and at the same time was evaluated cell viability by MTT using (3-4,5-[…])-2,5-diphenyl tetrazolium bromide reagent (Sigma-Aldrich). Following the treatment, 20 µL of MTT (5 mg/mL in PBS) was added, and the cells were incubated for additional 3 h at 37°C. […]
The absorbance was measured at 570 nm with a Multiskan™ GO Microplate Spectrophotometer (Thermo Fisher Scientific, USA). […]
MTT (5 mg/mL) was added, and after 1 h (37 °C, 5% CO 2) the medium was replaced with DMSO (100 µL per well). Finally, formazan formation was detected by the measurement of absorbance at […]
Acute cytotoxicity of compounds 3, 6, 7, 9 was analyzed on human monocytes. […]

[2] = tested on: 5-LO product formation in intact neutrophils (PMNL); test: Determination of 5-LO products in neutrophils; type: cell-based; conditions: Homo sapiens
Description: Figure S3. Concentration-response curves for inhibition of 5-LO product formation in neutrophils.
Cells were pre-incubated with compounds 3, 6, 7 and 9 or 0.1% DMSO over 10 min at 37 °C, and then stimuli were added. On the left (A,C, E, G), cells were stimulated with 2.5 µM Ca 2+-ionophore A23187 over 10 min; on the right (B, D, F, H), cells were stimulated with 2.5 µM Ca 2+-ionophore A23187 plus 20 µM arachidonic acid over 10 min. Data are expressed as percentage of uninhibited control (100%), means, S.E.M., n = 3. […]
Determination of 5-LO products in neutrophils
Freshly isolated neutrophils were resuspended in PBS buffer containing 0.1% glucose and 1 mM CaCl2 to a final cell density of 5 × 10 6. Cells were pre-incubated with compounds 3, 6, 7, 9 or DMSO vehicle (0.1%) at 37 °C for 10 min. Then, 2.5 µM Ca 2+-ionophore A23187 (with or without supplementation of 20 µM of arachidonic acid) was added as stimulus, and cells were left at 37 °C for 10 min. 1 mL of ice-cold methanol was used to stop the reaction of 5-LO product formation on ice, and 530 µL of PBS plus HCl and PGB 1 (as internal standard) were added. Finally, cells were centrifuged (2000 x g) over 10 min at room temperature, and 5-LO products were extracted by solid-phase extraction, and they were quantified by RP-HPLC as described above. […]

[3] = 2.5 µM A23187, n = 3, read-out: 5-LO product formation on PMNL, IC50 value ± SEM, stimulus: A23187
[4] = 2.5 µM A23187 plus 20 μM arachidonic acid, n = 3, read-out: 5-LO product formation on PMNL, IC50 value ± SEM, stimulus: A23187 + AA

IC50 [2, 3] [µM]	IC50 [2, 4] [µM]	Structure (SMILES)	PGE2 released into the medium [1]
4.8 ± 1.9	6.9 ± 2.2	Cc1cc(C(=O)Nc2nnc(-c3ccc(-c4ccccc4N)cc3)s2)cc(Cl)n1 [compound 6]	able to suppress the biosynthesis of PGE2 in a concentration-dependent manner
2.1 ± 0.3	4.2 ± 0.3	Nc1ccccc1-c1ccc(-c2nnc(NC(=O)c3c(Cl)ccnc3Cl)s2)cc1 [compound 9]	able to suppress the biosynthesis of PGE2 in a concentration-dependent manner
4.2 ± 1.4	2.3 ± 0.8	Nc1ccccc1-c1ccc(-c2nnc(NC(=O)c3ccccc3Br)s2)cc1 [compound 7]	able to suppress the biosynthesis of PGE2 in a concentration-dependent manner
4.9 ± 0.5	5.2 ± 1.2	O=C(Nc1nnc(-c2ccc(-c3cccc(O)c3)cc2)s1)c1ccccc1Br [compound 3]	

Reference: paper PMC9841589, “Identification of 2-Aminoacyl-1,3,4-thiadiazoles as Prostaglandin E2 and Leukotriene Biosynthesis Inhibitors” (ACS Medicinal Chemistry Letters, 2022)
